Test results from patent US20180256673A1, “METHODS FOR TREATING FUNGAL INFECTIONS” (priority 2015, published 2018).
≈ marks a conversion by molar mass, not a printed value. Like-named read-outs stand apart in the source and are kept apart here. Starred links: 1 amine or outer side, 2 acyl side, 3 side chain; linkers in the order of their positions; H or OH if unused. Positions of bridges follow the written chain, without caps; N, C: chain ends. Non-standard residues stand in square brackets, D forms with d. Residues, ends and D or L forms follow the SMILES beside them. *: point of attachment. hTyr(3S-OH,4S-OH,3'-OSO3H) = N[C@H](C(=O)O)[C@H](O)[C@@H](O)c1ccc(O)c(OS(=O)(=O)O)c1; Orn(4R-OH,5R-OH) = O=C([C@H](C[C@@H](O)[C@@H](O)N[*:3])N[*:1])[*:2]; Pro(3S-OH,4S-Me) = C[C@H]1CN[C@H](C(=O)O)[C@H]1O; X1 = CCCCCOc1ccc(-c2cc(-c3ccc(C(=O)*)cc3)no2)cc1; Gln(3R-OH) = NC(=O)C[C@@H](O)[C@H](N)C(=O)O; Hyp = O=C(O)[C@@H]1C[C@@H](O)CN1

Assays:
[1] = test system: C. tropicalis vaginal isolates; assay: Susceptibility testing of VVC clinical isolates at pH 7 and 4 (CLSI M27-A3); format: cell-based; settings: Candida tropicalis
Candida tropicalis = assay: Broth microdilution of invasive fungal isolates (CLSI M27-A3/M38-A2); format: cell-based
[2] = test system: C. glabrata vaginal isolates; assay: Susceptibility testing of VVC clinical isolates at pH 7 and 4 (CLSI M27-A3); format: cell-based, Candida glabrata; settings: for MIC90: Nakaseomyces glabratus
[3] = test system: azole-resistant Candida albicans (R357); assay: Disseminated infection model in neutropenic ICR mice, kidney fungal counts (Example 10, Tables 22-23); format: in vivo; settings: for reduction in colony counts compared to the vehicle control group: kidney, 20 mg/kg PO once
[4] = test system: C. parapsilosis vaginal isolates; assay: Susceptibility testing of VVC clinical isolates at pH 7 and 4 (CLSI M27-A3); format: cell-based, Candida parapsilosis
C. tropicalis = assay: Antifungal susceptibility testing (CLSI M27-S4), WT and echinocandin-resistant isolates; settings: 24 hr
Protocol: (§1) Antifungal susceptibility testing. Antifungal susceptibility testing was performed in triplicate for a collection of 95 Candida strains (20 C. albicans, 20 C. glabrata, 2 C. dubliniensis, 15 C. krusei, 19 C. parapsilosis, and 19 C. tropicalis) that included 30 isolates showing an echinocandin resistance (ER) phenotype (caspofungin-resistant) in accordance with the guidelines described in the Clinical and Laboratory Standards Institute (CLSI) document M27-S4. […] Stock solutions of the drugs were kept at −86° C.

Candida krusei = assay: Broth microdilution of invasive fungal isolates (CLSI M27-A3/M38-A2); format: cell-based
Candida dubliniensis = assay: as above; format: cell-based
C. glabrata [5] = assay: Mutant prevention concentration (MPC) determination; format: cell-based, Candida glabrata; settings: wild-type isolates; 24 hr, ~1×10^7 CFU/mL
C. glabrata [6] = assay: Antifungal susceptibility testing (CLSI M27-S4), WT and echinocandin-resistant isolates; settings: for MIC median (range): 24 hr
Protocol: as §1

[7] = test system: C. albicans ATCC 90028 and DPL22; assay: MIC of strains used in mouse study (Table 3); settings: Candida albicans
Candida orthopsilosis = assay: Broth microdilution of invasive fungal isolates (CLSI M27-A3/M38-A2); format: cell-based
[8] = target: 1,3-β-D-glucan synthase from C. albicans (Candida albicans, UniProt O13428); assay: Glucan synthase (GS) inhibition assay
[9] = target: 1,3-β-D-glucan synthase from C. albicans (Candida albicans, UniProt O13428, F641S); assay: Glucan synthase (GS) inhibition assay; settings: IC50, DPL18; Fks1 F641S
[10] = target: 1,3-β-D-glucan synthase from C. albicans (Candida albicans, UniProt O13428, S645P); assay: Glucan synthase (GS) inhibition assay; settings: IC50, DPL20; Fks1 S645P
Chain of 1,3-β-D-glucan synthase from C. albicans (Candida albicans, UniProt O13428, S645P) (O13428 entry or part of it S645P): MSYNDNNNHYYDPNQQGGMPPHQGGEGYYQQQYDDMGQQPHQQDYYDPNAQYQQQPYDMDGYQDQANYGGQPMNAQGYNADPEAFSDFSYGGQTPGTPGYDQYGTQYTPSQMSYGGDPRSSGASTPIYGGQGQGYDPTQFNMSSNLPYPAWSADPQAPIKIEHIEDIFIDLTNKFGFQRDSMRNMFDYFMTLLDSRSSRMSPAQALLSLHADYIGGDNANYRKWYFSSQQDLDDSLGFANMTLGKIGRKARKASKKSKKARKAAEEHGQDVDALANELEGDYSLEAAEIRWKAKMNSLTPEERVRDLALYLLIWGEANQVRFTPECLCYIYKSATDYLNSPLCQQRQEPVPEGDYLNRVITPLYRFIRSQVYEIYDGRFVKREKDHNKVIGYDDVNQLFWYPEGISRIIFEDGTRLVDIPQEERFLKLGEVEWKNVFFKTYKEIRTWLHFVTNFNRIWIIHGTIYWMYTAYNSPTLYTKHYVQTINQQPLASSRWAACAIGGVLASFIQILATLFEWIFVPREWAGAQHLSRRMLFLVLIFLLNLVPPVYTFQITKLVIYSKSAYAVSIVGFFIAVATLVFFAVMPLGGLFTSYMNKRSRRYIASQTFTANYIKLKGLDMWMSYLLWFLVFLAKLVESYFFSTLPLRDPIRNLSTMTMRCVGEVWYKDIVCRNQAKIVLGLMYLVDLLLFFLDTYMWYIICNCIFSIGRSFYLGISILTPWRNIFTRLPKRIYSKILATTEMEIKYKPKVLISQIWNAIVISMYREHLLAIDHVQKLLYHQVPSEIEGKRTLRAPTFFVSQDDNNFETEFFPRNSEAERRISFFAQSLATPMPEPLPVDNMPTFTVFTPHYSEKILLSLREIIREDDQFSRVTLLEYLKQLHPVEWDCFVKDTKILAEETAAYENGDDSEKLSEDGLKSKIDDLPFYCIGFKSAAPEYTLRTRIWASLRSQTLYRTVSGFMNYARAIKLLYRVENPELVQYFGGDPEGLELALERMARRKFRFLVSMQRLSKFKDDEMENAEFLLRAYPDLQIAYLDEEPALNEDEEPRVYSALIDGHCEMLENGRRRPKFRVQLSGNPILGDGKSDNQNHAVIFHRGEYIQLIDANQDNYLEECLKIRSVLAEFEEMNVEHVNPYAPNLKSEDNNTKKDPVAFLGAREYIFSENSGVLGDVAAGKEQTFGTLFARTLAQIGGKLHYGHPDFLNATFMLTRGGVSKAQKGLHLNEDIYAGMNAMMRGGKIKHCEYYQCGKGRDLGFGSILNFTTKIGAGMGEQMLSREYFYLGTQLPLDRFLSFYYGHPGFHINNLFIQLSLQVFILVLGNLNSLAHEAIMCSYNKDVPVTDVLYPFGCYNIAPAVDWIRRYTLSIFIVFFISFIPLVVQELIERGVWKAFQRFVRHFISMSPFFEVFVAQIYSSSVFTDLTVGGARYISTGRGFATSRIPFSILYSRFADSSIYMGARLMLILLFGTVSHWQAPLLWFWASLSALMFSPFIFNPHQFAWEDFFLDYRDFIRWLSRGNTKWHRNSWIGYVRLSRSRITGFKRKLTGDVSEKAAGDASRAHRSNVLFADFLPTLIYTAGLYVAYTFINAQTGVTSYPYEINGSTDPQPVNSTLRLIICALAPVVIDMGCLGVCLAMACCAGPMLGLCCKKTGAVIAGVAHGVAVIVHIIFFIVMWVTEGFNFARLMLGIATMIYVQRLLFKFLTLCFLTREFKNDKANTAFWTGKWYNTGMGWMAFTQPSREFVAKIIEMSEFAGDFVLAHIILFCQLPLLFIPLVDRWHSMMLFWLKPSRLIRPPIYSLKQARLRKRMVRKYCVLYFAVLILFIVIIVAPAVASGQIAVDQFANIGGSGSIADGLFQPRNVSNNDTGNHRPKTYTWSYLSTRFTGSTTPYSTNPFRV

Chain of 1,3-β-D-glucan synthase from C. albicans (Candida albicans, UniProt O13428, F641S) (O13428 entry or part of it F641S): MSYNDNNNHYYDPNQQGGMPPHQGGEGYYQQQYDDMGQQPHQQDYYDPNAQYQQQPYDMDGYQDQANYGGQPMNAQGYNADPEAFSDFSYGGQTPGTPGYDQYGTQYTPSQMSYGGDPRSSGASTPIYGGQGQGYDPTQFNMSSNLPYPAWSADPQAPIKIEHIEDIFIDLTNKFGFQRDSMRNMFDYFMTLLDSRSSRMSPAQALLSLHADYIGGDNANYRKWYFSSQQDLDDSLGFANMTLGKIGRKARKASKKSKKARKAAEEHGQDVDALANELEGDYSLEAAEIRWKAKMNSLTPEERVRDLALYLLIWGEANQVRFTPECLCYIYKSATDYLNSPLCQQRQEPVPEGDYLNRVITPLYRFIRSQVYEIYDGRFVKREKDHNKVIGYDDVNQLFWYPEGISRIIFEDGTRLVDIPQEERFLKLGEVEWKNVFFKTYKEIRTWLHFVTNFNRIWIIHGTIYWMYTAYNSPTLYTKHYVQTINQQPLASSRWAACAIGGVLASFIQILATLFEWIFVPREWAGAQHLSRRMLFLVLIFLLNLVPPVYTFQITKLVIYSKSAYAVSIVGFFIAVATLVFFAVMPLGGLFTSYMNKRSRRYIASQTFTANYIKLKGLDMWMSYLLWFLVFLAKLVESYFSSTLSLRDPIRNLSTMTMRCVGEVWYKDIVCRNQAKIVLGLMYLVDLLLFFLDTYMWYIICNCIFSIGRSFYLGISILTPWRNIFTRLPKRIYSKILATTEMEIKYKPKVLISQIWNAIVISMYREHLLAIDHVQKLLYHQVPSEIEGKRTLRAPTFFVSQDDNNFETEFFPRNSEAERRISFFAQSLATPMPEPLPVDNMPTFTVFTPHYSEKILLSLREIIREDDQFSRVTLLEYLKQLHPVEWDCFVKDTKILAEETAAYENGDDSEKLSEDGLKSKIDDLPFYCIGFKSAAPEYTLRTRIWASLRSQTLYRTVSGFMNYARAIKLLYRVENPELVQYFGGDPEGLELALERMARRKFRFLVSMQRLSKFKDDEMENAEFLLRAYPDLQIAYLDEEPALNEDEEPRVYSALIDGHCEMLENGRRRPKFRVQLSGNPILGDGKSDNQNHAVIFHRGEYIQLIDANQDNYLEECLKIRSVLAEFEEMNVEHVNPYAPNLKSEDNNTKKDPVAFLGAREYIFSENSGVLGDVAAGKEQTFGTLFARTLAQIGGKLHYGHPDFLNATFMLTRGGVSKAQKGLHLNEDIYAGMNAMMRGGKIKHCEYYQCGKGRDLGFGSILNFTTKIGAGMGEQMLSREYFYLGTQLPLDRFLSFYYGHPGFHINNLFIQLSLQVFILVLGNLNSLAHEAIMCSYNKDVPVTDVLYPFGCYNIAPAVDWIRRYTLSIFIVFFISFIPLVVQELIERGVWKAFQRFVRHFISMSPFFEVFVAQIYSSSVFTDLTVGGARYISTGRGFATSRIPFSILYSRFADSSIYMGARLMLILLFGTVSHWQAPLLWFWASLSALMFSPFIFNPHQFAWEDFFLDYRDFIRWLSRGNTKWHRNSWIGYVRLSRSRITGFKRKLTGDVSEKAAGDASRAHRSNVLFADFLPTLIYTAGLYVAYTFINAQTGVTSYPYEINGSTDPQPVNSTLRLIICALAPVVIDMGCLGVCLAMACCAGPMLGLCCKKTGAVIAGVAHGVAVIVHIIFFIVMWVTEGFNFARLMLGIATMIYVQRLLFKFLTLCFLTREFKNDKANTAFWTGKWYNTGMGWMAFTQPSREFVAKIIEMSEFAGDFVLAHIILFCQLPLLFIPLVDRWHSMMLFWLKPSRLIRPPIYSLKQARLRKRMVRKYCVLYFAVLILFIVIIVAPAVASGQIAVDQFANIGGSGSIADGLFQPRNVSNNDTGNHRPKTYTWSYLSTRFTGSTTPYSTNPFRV

SMILES: OC(Cn1cncn1)(Cn1cncn1)c1ccc(F)cc1F [FLU, fluconazole]
- MIC90 ([1]; 13 isolates, pH 4, 24 h, read-out: MIC90): 8 µg/mL (≈ 26.1 µM)
- MIC90 ([1]; 13 isolates, pH 4, 48 h, read-out: MIC90): > 64 µg/mL
- MIC90 ([1]; 13 isolates, pH 7, 24 h, read-out: MIC90): 2 µg/mL (≈ 6.53 µM)
- MIC90 ([1]; 13 isolates, pH 7, 48 h, read-out: MIC90): 64 µg/mL (≈ 209 µM)
- % of isolates with fluconazole resistance (Candida tropicalis; CLSI breakpoints): 2.0%
- Number of isolates at MIC 2 μg/mL ([2]; 21 VVC isolates, 24 h, pH 4): 5
- Number of isolates at MIC 4 μg/mL ([2]; 21 VVC isolates, 24 h, pH 4): 3
- Number of isolates at MIC ≥4 μg/mL ([2]; 21 VVC isolates, 24 h, pH 4): 13
- Number of isolates at MIC 0.5 μg/mL ([2]; 21 VVC isolates, 24 h, pH 7): 4
- Number of isolates at MIC 1 μg/mL ([2]; 21 VVC isolates, 24 h, pH 7): 2
- Number of isolates at MIC 2 μg/mL ([2]; 21 VVC isolates, 24 h, pH 7): 5
- Number of isolates at MIC 4 μg/mL ([2]; 21 VVC isolates, 24 h, pH 7): 2
- Number of isolates at MIC ≥4 μg/mL ([2]; 21 VVC isolates, 24 h, pH 7): 8
- Number of isolates at MIC 2 μg/mL ([2]; 21 VVC isolates, 48 h, pH 4): 1
- Number of isolates at MIC 4 μg/mL ([2]; 21 VVC isolates, 48 h, pH 4): 2
- Number of isolates at MIC ≥4 μg/mL ([2]; 21 VVC isolates, 48 h, pH 4): 18
- Number of isolates at MIC 1 μg/mL ([2]; 21 VVC isolates, 48 h, pH 7): 3
- Number of isolates at MIC 2 μg/mL ([2]; 21 VVC isolates, 48 h, pH 7): 4
- Number of isolates at MIC 4 μg/mL ([2]; 21 VVC isolates, 48 h, pH 7): 2
- Number of isolates at MIC ≥4 μg/mL ([2]; 21 VVC isolates, 48 h, pH 7): 12
- MIC90 ([2]; 21 isolates, pH 4, 24 h, read-out: MIC90): 64 µg/mL (≈ 209 µM)
- MIC90 ([2]; 21 isolates, pH 4, 48 h, read-out: MIC90): > 64 µg/mL
- MIC90 ([2]; 21 isolates, pH 7, 24 h, read-out: MIC90): 16 µg/mL (≈ 52.2 µM)
- MIC90 ([2]; 21 isolates, pH 7, 48 h, read-out: MIC90): > 64 µg/mL
- antimicrobial effect versus vehicle (one-way ANOVA, Dunnett's test) ([3]; 48 and 72 hr after infection, Compound 1 3, 10, 30 mg/kg IP, amphotericin B 1 and 3 mg/kg IV, fluconazole 20 mg/kg PO): not significant
- reduction in colony counts compared to the vehicle control group ([3]; 48 hr after infection): 51%
- reduction in colony counts compared to the vehicle control group ([3]; 72 hr after infection): 84%
- MIC90 ([4]; 14 isolates, pH 4, 24 h, read-out: MIC90): 8 µg/mL (≈ 26.1 µM)
- MIC90 ([4]; 14 isolates, pH 4, 48 h, read-out: MIC90): > 64 µg/mL
- MIC90 ([4]; 14 isolates, pH 7, 48 h, read-out: MIC90): 32 µg/mL (≈ 104 µM)

SMILES: CCCCCOc1ccc(-c2cc(-c3ccc(C(=O)N[C@H]4C[C@@H](O)[C@@H](O)NC(=O)[C@@H]5[C@@H](O)[C@@H](C)CN5C(=O)[C@H]([C@H](O)CC(N)=O)NC(=O)[C@H]([C@H](O)[C@@H](O)c5ccc(O)c(OS(=O)(=O)O)c5)NC(=O)[C@@H]5C[C@@H](O)CN5C(=O)[C@H]([C@@H](C)O)NC4=O)cc3)no2)cc1 [MCF, micafungin] (X1-[Orn(4R-OH,5R-OH)]T[Hyp][hTyr(3S-OH,4S-OH,3'-OSO3H)][Gln(3R-OH)][Pro(3S-OH,4S-Me)]; lactam 1-C)
- MIC median (range) (C. tropicalis; ER (4 isolates)): 2.00 (1-4) mg/L
- MIC median (range) (C. tropicalis; WT (15 isolates)): 0.03 (0.03)^ mg/L
- Cumulative % of isolates inhibited at MIC 0.06 μg/mL (Candida krusei; 16 isolates): (50.0) %
- Cumulative % of isolates inhibited at MIC 0.12 μg/mL (Candida krusei; 16 isolates): (100.0) %
- Number of isolates inhibited at MIC 0.06 μg/mL (Candida krusei; 16 isolates): 8
- Number of isolates inhibited at MIC 0.12 μg/mL (Candida krusei; 16 isolates): 8
- MIC50 (Candida krusei; Pichia kudriavzevii): 0.06 µg/mL (≈ 0.0472 µM)
- MIC90 (Candida krusei; Pichia kudriavzevii): 0.12 µg/mL (≈ 0.0945 µM)
- MIC90 ([1]; 24 h, pH 4): 0.06 µg/mL (≈ 0.0472 µM)
- MIC90 ([1]; 24 h, pH 7): 0.016 µg/mL (≈ 0.0126 µM)
- MIC90 ([1]; 48 h, pH 4): 0.06 µg/mL (≈ 0.0472 µM)
- MIC90 ([1]; 48 h, pH 7): 0.03 µg/mL (≈ 0.0236 µM)
- Cumulative % of isolates inhibited at MIC 0.015 μg/mL (Candida dubliniensis; 11 isolates): (27.3) %
- Cumulative % of isolates inhibited at MIC 0.03 μg/mL (Candida dubliniensis; 11 isolates): (100.0) %
- Number of isolates inhibited at MIC 0.015 μg/mL (Candida dubliniensis; 11 isolates): 3
- Number of isolates inhibited at MIC 0.03 μg/mL (Candida dubliniensis; 11 isolates): 8
- MIC50 (Candida dubliniensis; Candida dubliniensis): 0.03 µg/mL (≈ 0.0236 µM)
- MIC90 (Candida dubliniensis; Candida dubliniensis): 0.03 µg/mL (≈ 0.0236 µM)
- Cumulative % of isolates inhibited at MIC 0.015 μg/mL (Candida tropicalis; 51 isolates): (31.4) %
- Cumulative % of isolates inhibited at MIC 0.03 μg/mL (Candida tropicalis; 51 isolates): (84.3) %
- Cumulative % of isolates inhibited at MIC 0.06 μg/mL (Candida tropicalis; 51 isolates): (100.0) %
- Cumulative % of isolates inhibited at MIC ≤0.008 μg/mL (Candida tropicalis; 51 isolates): (2.0) %
- Number of isolates inhibited at MIC 0.015 μg/mL (Candida tropicalis; 51 isolates): 15
- Number of isolates inhibited at MIC 0.03 μg/mL (Candida tropicalis; 51 isolates): 27
- Number of isolates inhibited at MIC 0.06 μg/mL (Candida tropicalis; 51 isolates): 8
- Number of isolates inhibited at MIC ≤0.008 μg/mL (Candida tropicalis; 51 isolates): 1
- MIC50 (Candida tropicalis; Candida tropicalis): 0.03 µg/mL (≈ 0.0236 µM)
- MIC90 (Candida tropicalis; Candida tropicalis): 0.06 µg/mL (≈ 0.0472 µM)
- MPC (C. glabrata [5]): 16 µg/mL
- % of ER isolates with an MIC (C. glabrata [6]; C. glabrata ER isolates (n=11)): 63%
- MIC median (range) (C. glabrata [6]; ER (11 isolates)): 0.50 (0.06-4) mg/L
- MIC median (range) (C. glabrata [6]; WT (9 isolates)): <0.03 (<0.03)^ mg/L
- MIC ([7]; ATCC90028, ATCC 90028, Fks1p WT, Fks2p WT): < 0.03 µg/mL
- MIC ([7]; ATCC90028, DPL22, Fks1p S645P/S): 0.5 µg/mL
- Cumulative % of isolates inhibited at MIC 0.12 μg/mL (Candida orthopsilosis; 10 isolates): (20.0) %
- Cumulative % of isolates inhibited at MIC 0.25 μg/mL (Candida orthopsilosis; 10 isolates): (40.0) %
- Cumulative % of isolates inhibited at MIC 0.5 μg/mL (Candida orthopsilosis; 10 isolates): (70.0) %
- Cumulative % of isolates inhibited at MIC 1 μg/mL (Candida orthopsilosis; 10 isolates): (100.0) %
- Number of isolates inhibited at MIC 0.12 μg/mL (Candida orthopsilosis; 10 isolates): 2
- Number of isolates inhibited at MIC 0.25 μg/mL (Candida orthopsilosis; 10 isolates): 2
- Number of isolates inhibited at MIC 0.5 μg/mL (Candida orthopsilosis; 10 isolates): 3
- Number of isolates inhibited at MIC 1 μg/mL (Candida orthopsilosis; 10 isolates): 3
- MIC50 (Candida orthopsilosis; Lodderomyces orthopsilosis): 0.5 µg/mL (≈ 0.394 µM)
- MIC90 (Candida orthopsilosis; Lodderomyces orthopsilosis): 1 µg/mL (≈ 0.787 µM)
- MIC90 ([2]; 24 h, pH 4): 0.016 µg/mL (≈ 0.0126 µM)
- MIC90 ([2]; 24 h, pH 7): 0.008 µg/mL (≈ 0.0063 µM)
- MIC90 ([2]; 48 h, pH 4): 0.03 µg/mL (≈ 0.0236 µM)
- MIC90 ([2]; 48 h, pH 7): 0.016 µg/mL (≈ 0.0126 µM)
- IC50 ([8]; IC50, DPL1002, WT): 13.9 nM
- IC50 ([8]; IC50, glucan synthase, ATCC 90028, WT): 14.2 nM
- IC50 ([8]; glucan synthase, DPL22, Fks1p S645P/S): 193 nM
- IC50 [9]: 1400 nM
- IC50 [10]: 2010 nM
- MIC90 ([4]; 24 h, pH 4): 0.5 µg/mL (≈ 0.394 µM)
- MIC90 ([4]; 24 h, pH 7): 1 µg/mL (≈ 0.787 µM)
- MIC90 ([4]; 48 h, pH 4): 1 µg/mL (≈ 0.787 µM)
- MIC90 ([4]; 48 h, pH 7): 2 µg/mL (≈ 1.57 µM)
